Reference: patent publication US20160257697A1, “THIOPHENE-SUBSTITUTED TETRACYCLIC COMPOUNDS AND METHODS OFUSE THEREOF FOR THE TREATMENT OF VIRAL DISEASES” (priority 2013, published 2016)
Where two headings read alike, the source gives them in different places.

Legend:
Assay in all cases: microbe, parasite or virus in culture
Assay type in all cases: cell-based, Hepatitis C virus (HCV)
Conditions in all cases: Replicon Assay A
[1] = test system: HCV replicon 1AY93H
In short: (§1)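 Compound is added to replicon cells plated at 2000 cells/well (0.5% DMSO, 5% FBS). After 3 days the cells are washed and lysed, and HCV RNA and cyclophilin mRNA are quantified by multiplex RT-PCR against a standard curve of known replicon total RNA.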

[2] = test system: HCV replicon 1A
In short: as §1

[3] = test system: HCV replicon 2B
In short: as §1

[4] = read-out: 1A Y93H IC50, replicon 1AY93H
[5] = Hepatitis C virus, read-out: 1A Y93H IC50, HCV replicon 1A Y93H
[6] = Hepatitis C virus, HCV replicon 1A
[7] = Hepatitis C virus, read-out: 2B IC50, HCV replicon 2B
[8] = read-out: 1A Y93H IC50, HCV replicon 1A Y93H
[9] = read-out: 2B IC50, HCV replicon 2B
[10] = Hepatitis C virus, read-out: 1A Y93H IC50 (nM), replicon 1AY93H

| Compound | IC50 ([2]; replicon 1A) [nM] | IC50 [1, 4] [nM] | IC50 ([3]; read-out: 2B IC50, replicon 2B) [nM] | further results |
| --- | --- | --- | --- | --- |
| COC(=O)NC(C(=O)N1CCCC1c1ncc(-c2cc(F)c3c(c2)OC(c2ccc(C4CCC4)s2)n2c-3cc3cc(-c4cnc(C5CCCN5C(=O)C(NC(=O)OC)C5CC(C)OC(C)C5)[nH]4)ccc32)[nH]1)C(C)C (single isomer, unassigned) [Compound 373] | 0.001 | – | – | IC50 ([1]; replicon 1AY93H, read-out: 1A Y93H IC50): 0.248 nM; IC50 ([3]; replicon 2B, read-out: 2B IC50): 0.156 nM |
| COC(=O)NC(C(=O)N1CCC[C@H]1c1ncc(-c2ccc3c(c2)cc2n3C(c3ccc(C4CC4)s3)Oc3cc(-c4cnc([C@@H]5CCCN5C(=O)[C@@H](NC(=O)OC)C(C)C)[nH]4)cc(F)c3-2)[nH]1)C1CCO[C@H](C)C1 (single isomer, unassigned) [Compound 141] | 0.0584 | 12.8 | 21.4 | – |
| CCc1ccc(C2Oc3cc(-c4cnc([C@@H]5CCCN5C(=O)C(NC(=O)OC)C5CCOC(C)(C)C5)[nH]4)cc(F)c3-c3cc4cc(-c5cnc([C@@H]6CCCN6C(=O)[C@@H](NC(=O)OC)C(C)C)[nH]5)ccc4n32)s1 (single isomer, unassigned) [Compound 165] | 0.002 | 0.27 | 0.24 | – |
| COC(=O)N[C@H](C(=O)N1C[C@H](F)C[C@H]1c1ncc(-c2ccc3c(c2)OC(c2cc4ccccc4s2)n2c-3cc3cc(-c4cnc([C@@H]5C[C@@H](F)CN5C(=O)[C@@H](NC(=O)OC)C5CCOCC5)[nH]4)ccc32)[nH]1)C(C)C (mixture of isomers) [Compound 807] | – | – | – | IC50 [1, 5]: 0.025 nM; IC50 [2, 6]: 0.003 nM; IC50 [3, 7]: 2 nM |
| CCc1ccc(C2Oc3cc(-c4cnc([C@@H]5CCCN5C(=O)C(NC(=O)OC)C5CCOC(C)(C)C5)[nH]4)cc(F)c3-c3cc4cc(-c5cnc([C@@H]6CCCN6C(=O)[C@@H](NC(=O)OC)C(C)C)[nH]5)ccc4n32)s1 (single isomer, unassigned) [Compound 160] | 0.114 | 24.9 | 19.1 | – |
| COC(=O)N[C@H](C(=O)N1CCC[C@H]1c1ncc(-c2cc(F)c3c(c2)OC(c2ccc(C#CC4CC4)s2)n2c-3cc3cc(-c4cnc([C@@H]5CCCN5C(=O)[C@@H](NC(=O)OC)C(C)C)[nH]4)ccc32)[nH]1)C(C)C (single isomer, unassigned) [Compound 85] | – | 0.41 | 1 | IC50 ([2]; Hepatitis C virus, replicon 1A): 0.0011 nM |
| CCc1ccc(C2Oc3cc(-c4cnc([C@@H]5CCCN5C(=O)C(NC(=O)OC)C5C[C@@H](C)O[C@@H](C)C5)[nH]4)cc(F)c3-c3cc4cc(-c5cnc([C@@H]6CCCN6C(=O)C(NC(=O)OC)C6C[C@@H](C)O[C@@H](C)C6)[nH]5)ccc4n32)s1 (single isomer, unassigned) [Compound 299] | – | 0.27 | 0.14 | IC50 ([2]; Hepatitis C virus, replicon 1A): 0.0017 nM |
| COC(=O)N[C@H](C(=O)N1CCC[C@H]1c1ncc(-c2cc(F)c3c(c2)OC(c2cc4c(s2)CCCO4)n2c-3cc3cc(-c4cnc([C@@H]5CCCN5C(=O)[C@@H](NC(=O)OC)C5CCOC(C)(C)C5)[nH]4)ccc32)[nH]1)C(C)C (single isomer, unassigned) [Compound 412] | – | – | – | IC50 [1, 8]: 0.008 nM; IC50 ([2]; HCV replicon 1A): 0.0094 nM; IC50 [3, 9]: 0.005 nM |
| COC(=O)N[C@H](C(=O)N1CCC[C@H]1c1ncc(-c2ccc3c(c2)OC(c2ccc(C4CC4)s2)n2c-3c(C)c3cc(-c4cnc([C@@H]5CCCN5C(=O)[C@@H](NC(=O)OC)C(C)C)[nH]4)ccc32)[nH]1)C(C)C (single isomer, unassigned) [Compound 21] | – | 0.22 | 0.26 | IC50 ([2]; Hepatitis C virus, replicon 1A): 0.0019 nM |
| COC(=O)N[C@H](C(=O)N1CCC[C@H]1c1ncc(-c2cc(F)c3c(c2)OC(c2ccc(C(C)CF)s2)n2c-3cc3cc(-c4cnc([C@@H]5CCCN5C(=O)[C@@H](NC(=O)OC)C(C)C)[nH]4)ccc32)[nH]1)C(C)C (single isomer, unassigned) [Compound 332] | – | – | 1.39 | IC50 [1, 10]: 0.765 nM; IC50 ([2]; Hepatitis C virus, replicon 1A): 0.0011 nM |
| CCc1ccc(C2Oc3cc(-c4cnc([C@@H]5CCCN5C(=O)[C@@H](NC(=O)OC)C(C)C)[nH]4)cc(F)c3-c3cc4cc(-c5cnc([C@@H]6CCCN6C(=O)C(NC(=O)OC)C6CCOC(C)(C)C6)[nH]5)ccc4n32)s1 (single isomer, unassigned) [Compound 148] | 0.0919 | 10.2 | 13.2 | – |
| COC(=O)NC(C(=O)N1[C@@H]2C[C@@H]2C[C@H]1c1ncc(-c2ccc3c(c2)cc2n3C(c3ccc(C4CC4)s3)Oc3cc(-c4cnc([C@@H]5CCCN5C(=O)[C@@H](NC(=O)OC)C(C)C)[nH]4)cc(F)c3-2)[nH]1)C1CCOC(C)(C)C1 (single isomer, unassigned) [Compound 278] | 0.0018 | 0.161 | 0.3 | – |
| COC(=O)N[C@H](C(=O)N1CCC[C@H]1c1ncc(-c2ccc3c(c2)OC(c2cc4ccccc4s2)n2c-3cc3cc(-c4cnc([C@@H]5C[C@H]6C[C@H]6N5C(=O)[C@@H](NC(=O)OC)C(C)C)[nH]4)ccc32)[nH]1)C(C)C (single isomer, unassigned) [Compound 610] | – | – | – | IC50 [1, 8]: 0.453 nM; IC50 ([2]; HCV replicon 1A): 0.0124 nM; IC50 [3, 9]: 0.272 nM |
| COC(=O)NC(C(=O)N1CCC[C@H]1c1ncc(-c2ccc3c(c2)cc2n3C(c3ccc(C(C)C)s3)Oc3cc(-c4cnc([C@@H]5CCCN5C(=O)[C@@H](NC(=O)OC)C(C)C)[nH]4)cc(F)c3-2)[nH]1)C1C[C@@H](C)O[C@@H](C)C1 (single isomer, unassigned) [Compound 235] | 0.0013 | 3.87 | 10.2 | – |
| COC(=O)N[C@H](C(=O)N1CCC[C@H]1c1ncc(-c2cc(F)c3c(c2)OC(c2cccs2)n2c-3cc3cc(-c4cnc([C@@H]5CCCN5C(=O)[C@@H](NC(=O)OC)C(C)C)[nH]4)ccc32)[nH]1)C(C)C (mixture of isomers) [Compound 500] | – | – | – | IC50 [1, 5]: 0.367 nM; IC50 [2, 6]: 0.0219 nM; IC50 [3, 7]: 2.5 nM |
| COC(=O)N[C@H](C(=O)N1CCC[C@H]1c1ncc(-c2cc(F)c3c(c2)OC(c2ccc(C(CF)CF)s2)n2c-3cc3cc(-c4cnc([C@@H]5CCCN5C(=O)[C@@H](NC(=O)OC)C(C)C)[nH]4)ccc32)[nH]1)C(C)C (single isomer, unassigned) [Compound 120] | – | – | 1.44 | IC50 [1, 10]: 0.1 nM; IC50 ([2]; Hepatitis C virus, replicon 1A): 0.0015 nM |
| CCN(CC)[C@@H](C(=O)N1C[C@H](F)C[C@H]1c1nc(-c2ccc3c(c2)OC(c2ccc(Cl)s2)n2c-3cc3cc(-c4c[nH]c([C@@H]5C[C@@H](F)CN5C(=O)[C@@H](c5ccccc5)N(CC)CC)n4)ccc32)c[nH]1)c1ccccc1 (mixture of isomers) [Compound 732] | – | – | – | IC50 [1, 5]: 0.4 nM; IC50 [2, 6]: 0.16 nM; IC50 [3, 7]: 12.5 nM |
| COC(=O)N[C@H](C(=O)N1C[C@H](F)C[C@H]1c1ncc(-c2ccc3c(c2)OC(c2ccc(C)s2)n2c-3cc3cc(-c4cnc([C@@H]5C[C@H]6C[C@H]6N5C(=O)[C@@H](NC(=O)OC)C(C)C)[nH]4)ccc32)[nH]1)C(C)C (single isomer, unassigned) [Compound 708] | – | – | – | IC50 [1, 8]: 0.042 nM; IC50 ([2]; HCV replicon 1A): 0.018 nM; IC50 [3, 9]: 3.05 nM |
| COC(=O)NC(C(=O)N1CCC[C@H]1c1ncc(-c2ccc3c(c2)cc2n3C(c3ccc(C(C)C)s3)Oc3cc(-c4cnc([C@@H]5CCCN5C(=O)[C@@H](NC(=O)OC)C(C)C)[nH]4)cc(F)c3-2)[nH]1)C1CCOC(C)(C)C1 (single isomer, unassigned) [Compound 239] | 0.0982 | 6.6 | 9.48 | – |
| COC(=O)N[C@H](C(=O)N1CCC[C@H]1c1ncc(-c2cc(F)c3c(c2)OC(c2ccc(CC(C)C)s2)n2c-3cc3cc(-c4cnc([C@@H]5CCCN5C(=O)[C@@H](NC(=O)OC)C(C)C)[nH]4)ccc32)[nH]1)C(C)C (single isomer, unassigned) [Compound 522] | – | – | – | IC50 [1, 8]: 0.0776 nM; IC50 ([2]; HCV replicon 1A): 0.0239 nM; IC50 [3, 9]: 0.417 nM |
| COC(=O)N[C@H](C(=O)N1CCC[C@H]1c1ncc(-c2ccc3c(c2)OC(c2cc4ccccc4s2)n2c-3cc3cc(-c4cnc([C@@H]5C[C@@H](F)CN5C(=O)[C@@H](NC(=O)OC)C5CCOCC5)[nH]4)ccc32)[nH]1)C(C)C (single isomer, unassigned) [Compound 628] | – | – | – | IC50 [1, 8]: 0.357 nM; IC50 ([2]; HCV replicon 1A): 0.00314 nM; IC50 [3, 9]: 0.922 nM |
| COC(=O)N[C@H](C(=O)N1CCC[C@H]1c1ncc(-c2cc(F)c3c(c2)OC(c2sc(C4CC4)cc2F)n2c-3cc3cc(-c4cnc([C@@H]5CCCN5C(=O)[C@@H](NC(=O)OC)C(C)C)[nH]4)ccc32)[nH]1)C(C)C (single isomer, unassigned) [Compound 65] | – | 3 | 3.6 | IC50 ([2]; Hepatitis C virus, replicon 1A): 0.0016 nM |
| COC(=O)N[C@H](C(=O)N1CCC[C@H]1c1ncc(-c2cc(C)c3c(c2)OC(c2cc(C)c(C)s2)n2c-3cc3cc(-c4cnc([C@@H]5CCCN5C(=O)[C@@H](NC(=O)OC)C(C)C)[nH]4)ccc32)[nH]1)C(C)C (single isomer, unassigned) [Compound 16] | 0.0024 | 0.49 | 0.171 | – |
| CCc1ccc(C2Oc3cc(-c4cnc(C5CCCN5C(=O)C(NC(=O)OC)C5C[C@@H](C)O[C@@H](C)C5)[nH]4)ccc3-c3cc4c(F)c(-c5cnc([C@@H]6CCCN6C(=O)[C@@H](NC(=O)OC)C(C)C)[nH]5)ccc4n32)s1 (single isomer, unassigned) [Compound 358] | – | 2.62 | 2.49 | IC50 ([2]; Hepatitis C virus, replicon 1A): 0.0047 nM |
| [2H]C(C)(C)C(NC(=O)OC)C(=O)N1CCC[C@H]1c1ncc(-c2cc(F)c3c(c2)OC(c2ccc(C4CC4)s2)n2c-3cc3cc(-c4cnc([C@@H]5CCCN5C(=O)[C@@H](NC(=O)OC)C(C)C)[nH]4)ccc32)[nH]1 (single isomer, unassigned) [Compound 32] | 0.0013 | 1.42 | 6.02 | – |
